What was measured:
Format in all cases: in vivo, mouse
[1] = test system: Tg23 mice (diabetic nephropathy); assay: Experimental Example 2: effect of estradiol on second to third stage of diabetic nephropathy
Description: (a) Albumin concentration: Albuwellkit (Exocell),
(b) Creatinine: High-performance liquid chromatography (HPLC), and
(c) Creatinine clearance (Ccr): calculated by the next formula.
Ccr=urine creatinine (mg/dL)×urine volume (μL/min)/serum creatinine (mg/dL)/body weight (g). [Math. 1]
50 glomeruli were analyzed for each of the mice. The total area of the glomeruli was measured in PAS-stained sections using Image-Pro Plus (Media Cybernetics). The PAS-positive area fraction was calculated as the ratio of PAS-positive area to glomerular sectional surface area. Glomerular number was measured by counting all of the glomeruli per mid-transverse section of left kidney for each of the mice.
For Tg23 mice, at 20-35 weeks of age, which is when reduction in renal functions and renal lesions are observed, a single pellet of 17β-estradiol was subcutaneously administered, and the effect of estradiol was investigated. […]
PAS staining, and immunostaining using the anti-collagen type IV antibody were performed on glomerular tissues from each of the mice (48 weeks of age), and the results of the staining are shown respectively in FIG. 2(1) and FIG. 2(2). […] The expression intensity was measured in random fields (n=30/section) of the glomerulus, and the result was expressed as average pixel intensity.

[2] = test system: muscles (soleus muscle) of Tg23 mice; assay: Experimental Example 3: glucose (2-deoxy-D-glucose) intake of soleus muscles; details: Tg mice, Tx-E group vs Ct group, 20-40 weeks after the administration
Description: Mice were sacrificed, and extensor digitorum longus (EDL) muscles and soleus muscles were quickly removed and processed. Both ends of each of the muscles were tied with suture (silk 4-0), and mounted on an incubation apparatus. First, the muscles were preincubated for 20 minutes in 6 ml of Krebs-Ringer bicarbonate (KRB) buffer (117 mM NaCl, 4.7 mM KCl, 2.5 mM CaCl2, 1.2 mM KH2PO4, 1.2 mM MgSO4, 24.6 mM NaHCO3, pH 7.5) containing 2 mM pyruvate. Then, the muscles were incubated in KRB buffer in presence or absence of insulin.
Immediately after muscle incubation, the muscles were transferred to KRB buffer containing 1 mM 2-deoxy-D-[^3H]glucose (1.5 μCi/ml) and 7 mM D-[^14C]mannitol (0.3 μCi/ml) (PerkinElmer Life Sciences) at 30° C., and incubated again for 10 minutes. When using insulin, a buffer containing insulin was used for incubation in a similar manner.
Glucose transport was terminated by dipping the muscles in KRB buffer containing 80 μmol/L cytochalasin B at 4° C., and then the muscles were frozen in liquid nitrogen. The muscles were weighed, and digested by incubating in 250 μl of 1 M NaOH at 80° C. for 10 minutes. Digests were neutralized with 250 μl of 1 M HCl. […] Radioactivity in aliquots of the digested muscle was determined by liquid scintillation counting for dual labels, and extracellular and intracellular spaces were calculated. […]

Tg23 mice = assay: Experimental Example 5: β-cell neogenesis and electron microscopy of pancreas
Description: Pancreases were fixed in 10% formalin, embedded in paraffin, and sliced into sections having a thickness of 2 μm. The sections were immunostained with overnight incubation at 4° C. in dilution solutions containing various primary antibodies described below.
Primary antibodies: Anti-insulin antibody (dilution rate 1:500; DAKO), anti-glucagon antibody (dilution rate 1:500; Linco Research Inc.), anti-DBA antibody (dilution rate 1:300; Vector Laboratories), anti-Pdx-1 antibody (dilution rate 1:1000; kindly provided by Chris V. E. Wright, Vanderbilt University), anti-collagen type IV antibody (dilution rate 1:250; PROGEN Biotechnik), and anti-Glut 4 antibody (dilution rate 1:1000; Chemicon).
The primary antibodies were detected by immunofluorescence labeling using secondary antibodies conjugated with Alexa 488 or Alexa 568 (1:200; Molecular Probes); third antibody conjugated with biotin-labeled secondary antibodies and streptavidin Alexa 488 or Alexa 568 (1:800; Vector Laboratories); or by an immunoperoxidase staining method using biotin-labeled secondary antibodies. Staining was visualized with diaminobenzidine. […] Immunofluorescence intensity was measured in random fields (n=30/section) using LSM Zeiss software, and the result was expressed as average pixel intensity.
All pancreatic islets, glucagon positive cells, and insulin-positive cells existing on a single pancreas section were photographed on a Keyence Biorevo microscope, and five to seven sections corresponding to areas that are at least 150 μm apart from one another were evaluated for a single pancreas (a single group includes five to eight males and six to nine females). Areas of β-cells and pancreatic islets were measured for each of the sections using Image Joint and Dynamic Cell Count software (Keyence). […]
Experimental Example 5: Effect of estradiol administration (III) Tg23 mice (23-24 weeks of age) were divided into two groups (each group: n=4 to 10): an estradiol administration group and a control group. […] Then, blood glucose levels of these mice were monitored every week. […]

## C[C@]12CC[C@@H]3c4ccc(O)cc4CC[C@H]3[C@@H]1CC[C@@H]2O [estradiol, 17β-estradiol]
[1]; Tg23 mice treated at 24 weeks of age (Tx + single 17β-estradiol pellet s.c.), tissues at 48 weeks of age
  sclerosis of the glomeruli (PAS staining, collagen IV immunostaining): alleviated to a degree not different from wild-type mice
[1]; Tg23 mice, second stage of diabetic nephropathy (early nephropathia stage), Tx + single 17β-estradiol pellet s.c.
  renal functions and renal tissues (GFR, Ualb/Cr, kidney weight, urinary glucose, urine volume): dramatically improves
[2]
  amount of glucose intake of muscles: significantly increases
Tg23 mice; Tg23 mice 23-24 weeks of age, Tx+E group vs Tg group
  neogenesis of β-cells (insulin-producing cells and Pdx-1 in pancreatic duct epithelial cells): enhanced
Tg23 mice; Treatment group, 48 weeks of age, electron microscope
  mature β-cells: formed
Tg23 mice; Tx+E group (Treatment), 48 weeks of age
  insulin secretory granules in pancreatic tissue (electron microscope): observed

Source: patent US20120172344A1, “INSULIN-PRODUCING CELL INDUCER, GLUCOSE INTAKE ENHANCER, AND THERAPEUTIC AGENT FOR DIABETES OR DIABETES COMPLICATIONS” (KYUSHU UNIVERSITY, NATIONAL UNIVERSITY CORPORATION, priority 2009, published 2012)
